# Laboratory results: ChEMBL document CHEMBL4371015, “Synthesis and biological evaluation of bifendate derivatives bearing acrylamide moiety as novel antioxidant agents” (Eur J Med Chem, 2019)
# The source made the active and inactive calls. No cut-off for these calls is given here.
# Tests used:
# [1] = biological target: T1, Nuclear factor erythroid 2-related factor 2 (Rattus norvegicus) (UniProt O54968); assay: Activation of Nrf2 in rat HBZY-1 cells assessed as increase in NQO-1 mRNA expression at 6 uM after 24 hrs by RT-PCR analysis; type: cell-based
# T1 sequence (whole entry): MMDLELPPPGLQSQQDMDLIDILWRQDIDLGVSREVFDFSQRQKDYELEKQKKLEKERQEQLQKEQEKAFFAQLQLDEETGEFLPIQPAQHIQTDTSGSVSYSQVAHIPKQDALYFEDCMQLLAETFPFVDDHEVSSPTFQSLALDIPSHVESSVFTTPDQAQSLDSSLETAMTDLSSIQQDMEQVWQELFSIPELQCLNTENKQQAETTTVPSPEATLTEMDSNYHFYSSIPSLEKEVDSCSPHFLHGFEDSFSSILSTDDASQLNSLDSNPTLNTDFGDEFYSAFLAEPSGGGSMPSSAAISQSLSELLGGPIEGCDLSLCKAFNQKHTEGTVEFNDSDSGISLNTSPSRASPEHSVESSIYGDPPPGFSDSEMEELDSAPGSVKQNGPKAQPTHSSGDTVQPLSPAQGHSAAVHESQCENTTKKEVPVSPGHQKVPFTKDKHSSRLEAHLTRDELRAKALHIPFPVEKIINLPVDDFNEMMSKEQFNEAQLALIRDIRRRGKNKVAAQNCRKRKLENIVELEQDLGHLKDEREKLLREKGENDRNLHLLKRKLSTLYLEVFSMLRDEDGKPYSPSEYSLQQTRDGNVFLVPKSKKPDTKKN
# [2] = biological target: T1, Nuclear factor erythroid 2-related factor 2 (Rattus norvegicus); assay: Activation of Nrf2 in rat HBZY-1 cells assessed as increase in GCLM mRNA expression at 6 uM after 24 hrs by RT-PCR analysis; type: cell-based
# [3] = biological target: T1, Nuclear factor erythroid 2-related factor 2 (Rattus norvegicus); assay: Activation of Nrf2 in rat HBZY-1 cells assessed as increase in HO-1 mRNA expression at 6 uM after 24 hrs by RT-PCR analysis; type: cell-based
# [4] = biological target: T1, Nuclear factor erythroid 2-related factor 2 (Rattus norvegicus); assay: Activation of Nrf2 in rat HBZY-1 cells assessed as increase in GCLC mRNA expression at 6 uM after 24 hrs by RT-PCR analysis; type: cell-based
# [5] = biological target: T1, Nuclear factor erythroid 2-related factor 2 (Rattus norvegicus); assay: Activation of Nrf2 in rat HBZY-1 cells assessed as increase in GCLC level at 6 uM by Western blot analysis; type: cell-based
# [6] = biological target: T1, Nuclear factor erythroid 2-related factor 2 (Rattus norvegicus); assay: Activation of Nrf2 in rat HBZY-1 cells assessed as increase in HO-1 level at 6 uM by Western blot analysis; type: cell-based
# [7] = biological target: T1, Nuclear factor erythroid 2-related factor 2 (Rattus norvegicus); assay: Activation of Nrf2 in rat HBZY-1 cells assessed as increase in NQO-1 level at 6 uM by Western blot analysis; type: cell-based
# [8] = biological target: T1, Nuclear factor erythroid 2-related factor 2 (Rattus norvegicus); assay: Activation of Nrf2 in rat HBZY-1 cells assessed as increase in GCLM level at 6 uM by Western blot analysis; type: cell-based
# HBZY-1 [9] = assay: Cytotoxicity against rat HBZY-1 cells assessed as decrease in cell viability after 72 hrs by MTT assay; type: cell-based; settings: HBZY-1, 72 h
# HBZY-1 [10] = assay: Cytoprotection against H2O2-induced cell death in rat HBZY-1 cells assessed as increase in cell viability at 6 uM preincubated for 2 hrs followed by H2O2 addition and measured after 24 hrs by MTT assay; type: functional, cell-based
# HBZY-1 [11] = assay: Cytoprotection against H2O2-induced cell death in rat HBZY-1 cells assessed as cell viability at 6 uM preincubated for 2 hrs followed by H2O2 addition and measured after 24 hrs by MTT assay (reference value: 62.1%); type: functional; settings: read-out: Activity
# [12] = biological target: T2, Keap1/Nrf2 (Homo sapiens) (UniProt Q16236+Q14145); assay: Induction of Keap1/Nrf2 (unknown origin) interaction assessed as increase in Nfr2 level in presence of DTT by Western blot analysis; type: protein assay
# T2 sequence (Q14145 whole entry, looked up, one chain of several): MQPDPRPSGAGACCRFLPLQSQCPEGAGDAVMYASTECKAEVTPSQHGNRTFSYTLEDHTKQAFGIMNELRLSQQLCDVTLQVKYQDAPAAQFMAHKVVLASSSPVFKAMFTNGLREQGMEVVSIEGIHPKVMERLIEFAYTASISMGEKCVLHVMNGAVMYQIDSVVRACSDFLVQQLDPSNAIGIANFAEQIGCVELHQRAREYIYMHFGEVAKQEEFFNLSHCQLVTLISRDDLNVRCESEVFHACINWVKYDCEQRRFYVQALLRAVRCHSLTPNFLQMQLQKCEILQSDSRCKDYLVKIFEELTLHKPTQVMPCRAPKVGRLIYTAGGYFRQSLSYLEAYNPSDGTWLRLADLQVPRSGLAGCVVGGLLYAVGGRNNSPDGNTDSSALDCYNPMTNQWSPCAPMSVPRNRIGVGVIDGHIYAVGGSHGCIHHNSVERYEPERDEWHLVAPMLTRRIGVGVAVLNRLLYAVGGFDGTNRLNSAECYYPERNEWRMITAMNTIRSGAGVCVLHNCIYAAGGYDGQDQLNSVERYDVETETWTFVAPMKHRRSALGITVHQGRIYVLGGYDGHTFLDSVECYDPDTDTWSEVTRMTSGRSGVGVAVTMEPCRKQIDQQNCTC
# HBZY-1 [13] = assay: Cytoprotection against H2O2-induced cell death in rat HBZY-1 cells assessed as increase in cell viability preincubated for 2 hrs followed by H2O2 addition and measured after 24 hrs by MTT assay; type: functional, cell-based
# HBZY-1 [14] = assay: Cytoprotection against H2O2-induced cell death in rat HBZY-1 cells assessed as increase in cell viability at 6 uM preincubated for 2 hrs with 10 nM BSO prior to compound addition followed by 2 hrs incubation before H2O2 addition and measured after 24 hrs by MTT assay; type: functional, cell-based
# HBZY-1 [15] = assay: Cytoprotection against H2O2-induced cell death in rat HBZY-1 cells assessed as increase in cell viability at 6 uM pre-incubated for 2 hrs with 100 nM TRG prior to compound addition followed by 2 hrs incubation before H2O2 addition and measured after 24 hrs by MTT assay; type: functional, cell-based
# HBZY-1 [16] = assay: Cytoprotection against H2O2-induced cell death in rat HBZY-1 cells assessed as increase in cell viability at 6 uM preincubated for 2 hrs with 6 nM ZNPP prior to compound addition followed by 2 hrs incubation before H2O2 addition and measured after 24 hrs by MTT assay; type: functional, cell-based
# [17] = biological target: T2, Keap1/Nrf2 (Homo sapiens); assay: Induction of Keap1/Nrf2 (unknown origin) interaction assessed as increase in Nfr2 level in absence of DTT by Western blot analysis; type: protein assay
# HBZY-1 [18] = assay: Cytotoxicity against rat HBZY-1 cells assessed as decrease in cell viability up to 200 uM after 72 hrs by MTT assay; type: cell-based; settings: hbzy-1, 72 h
# [19] = biological target: T2, Keap1/Nrf2 (Homo sapiens); assay: Induction of Keap1/Nrf2 (unknown origin) interaction assessed as reduction in Nfr2 level in presence of DTT by Western blot analysis; type: protein assay
# HBZY-1 [20] = assay: Cytoprotection against H2O2-induced cell death in rat HBZY-1 cells assessed as increase in cell viability at 6 uM preincubated for 2 hrs with 200 nM TRG prior to compound addition followed by 2 hrs incubation before H2O2 addition and measured after 24 hrs by MTT assay; type: functional, cell-based
# HBZY-1 [21] = assay: Cytoprotection against H2O2-induced cell death in rat HBZY-1 cells assessed as increase in cell viability at 6 uM preincubated for 2 hrs with 3 nM ZNPP prior to compound addition followed by 2 hrs incubation before H2O2 addition and measured after 24 hrs by MTT assay; type: functional, cell-based
# HBZY-1 [22] = assay: Antioxidant activity in rat HBZY-1 cells assessed as inhibition of H2O2-induced ROS accumulation […] for 12 hrs followed by H2O2 addition and measured after 3 hrs by DCFHA-DA/FITC staining-based FACS analysis; type: functional, cell-based
# [23] = biological target: T3, Nuclear factor erythroid 2-related factor 2 (Homo sapiens) (UniProt Q16236); assay: Activation of Nrf2 (unknown origin) expressed in HEK293 cells after 16 hrs by luciferase reporter gene assay; type: cell-based
# T3 sequence (whole entry): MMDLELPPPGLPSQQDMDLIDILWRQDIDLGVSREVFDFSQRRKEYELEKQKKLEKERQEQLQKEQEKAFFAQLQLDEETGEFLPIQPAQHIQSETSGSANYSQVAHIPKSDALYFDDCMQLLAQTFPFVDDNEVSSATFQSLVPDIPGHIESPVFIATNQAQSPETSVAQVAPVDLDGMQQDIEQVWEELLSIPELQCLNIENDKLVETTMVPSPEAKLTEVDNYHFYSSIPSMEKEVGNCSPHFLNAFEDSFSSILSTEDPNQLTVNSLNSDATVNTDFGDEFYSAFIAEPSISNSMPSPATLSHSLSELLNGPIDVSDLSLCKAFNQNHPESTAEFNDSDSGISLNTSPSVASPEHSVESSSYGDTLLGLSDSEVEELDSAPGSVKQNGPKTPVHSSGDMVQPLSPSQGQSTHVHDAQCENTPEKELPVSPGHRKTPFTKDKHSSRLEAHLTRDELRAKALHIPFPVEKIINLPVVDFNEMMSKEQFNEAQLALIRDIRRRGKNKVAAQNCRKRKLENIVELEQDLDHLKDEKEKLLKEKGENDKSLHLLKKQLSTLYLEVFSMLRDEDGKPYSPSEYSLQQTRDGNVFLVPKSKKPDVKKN
# [24] = biological target: T2, Keap1/Nrf2 (Homo sapiens); assay: Induction of Keap1/Nrf2 (unknown origin) interaction assessed as reduction in Nfr2 level in absence of DTT by Western blot analysis; type: protein assay
# HBZY-1 [25] = assay: Cytoprotection against H2O2-induced cell death in rat HBZY-1 cells assessed as increase in cell viability at 6 uM preincubated for 2 hrs with 20 nM BSO prior to compound addition followed by 2 hrs incubation before H2O2 addition and measured after 24 hrs by MTT assay; type: functional, cell-based
# HBZY-1 [26] = assay: Cytoprotection against H2O2-induced cell death in rat HBZY-1 cells assessed as cell viability at 100 uM preincubated for 2 hrs followed by H2O2 addition and measured after 24 hrs by MTT assay (reference value: 62.1%); type: functional; settings: read-out: Activity
smiles,measurement,setting,value
Oc1ccc(/C=C/c2cc(O)cc(O)c2)cc1,Activity,[1],Active
same,Activity,[2],Active
same,Activity,[3],Active
same,Activity,[4],Active
same,Activity,[5],Active
same,Activity,[6],Active
same,Activity,[7],Active
same,Activity,[8],Active
COc1ccc(/C=C(\C#N)C(=O)Nc2ccccc2OC)cc1,IC50,HBZY-1 [9],> 200 µM
same,Activity,HBZY-1 [10],inactive
COC(=O)c1cc(OC)c2c(c1-c1c(/C=C(\C#N)C(=O)NCc3ccc(OC)cc3)cc(OC)c3c1OCO3)OCO2,IC50,HBZY-1 [9],> 200 µM
COC(=O)c1cc(OC)c2c(c1-c1c(/C=C/C(=O)NCCc3ccc(OC)c(OC)c3)cc(OC)c3c1OCO3)OCO2,IC50,HBZY-1 [9],> 200 µM
COC(=O)c1cc(OC)c2c(c1-c1c(/C=C/C(=O)Nc3cc(OC)c(OC)c(OC)c3)cc(OC)c3c1OCO3)OCO2,IC50,HBZY-1 [9],> 200 µM
COC(=O)c1cc(OC)c2c(c1-c1c(/C=C/C(=O)Nc3ccccc3OC)cc(OC)c3c1OCO3)OCO2,IC50,HBZY-1 [9],> 200 µM
same,viability at 6 µM,HBZY-1 [11],90.6%
COC(=O)c1cc(OC)c2c(c1-c1c(/C=C(\C#N)C(=O)Nc3ccc(OC)cc3)cc(OC)c3c1OCO3)OCO2,inhibition,[12],inactive
same,IC50,HBZY-1 [9],> 200 µM
same,Activity,HBZY-1 [13],Dose-dependent effect
same,Activity,HBZY-1 [14],inactive
same,Activity,HBZY-1 [15],inactive
same,Activity,HBZY-1 [16],inactive
same,Activity,[17],Active
same,viability at 6 µM,HBZY-1 [11],97.2%
same,Activity,HBZY-1 [18],Non-Toxic
same,inhibition,[19],inactive
same,Activity,HBZY-1 [20],inactive
same,Activity,HBZY-1 [21],inactive
same,inhibition,HBZY-1 [22],Dose-dependent effect
same,Activity,[23],Dose-dependent effect
same,Activity,[24],Active
same,Activity,HBZY-1 [25],inactive
COC(=O)c1cc(OC)c2c(c1-c1c(/C=C/C(=O)Nc3ccc(OC)c(OC)c3)cc(OC)c3c1OCO3)OCO2,IC50,HBZY-1 [9],> 200 µM
COC(=O)c1cc(OC)c2c(c1-c1c(C(=O)OC)cc(OC)c3c1OCO3)OCO2 [BIFENDATE],viability at 6 µM,HBZY-1 [11],66.1%
same,viability at 100 µM,HBZY-1 [26],89.8%
COC(=O)c1cc(OC)c2c(c1-c1c(/C=C(\C#N)C(=O)Nc3ccc(OC)c(OC)c3)cc(OC)c3c1OCO3)OCO2,IC50,HBZY-1 [9],> 200 µM
COC(=O)c1cc(OC)c2c(c1-c1c(/C=C(\C#N)C(=O)NCCc3ccc(OC)c(OC)c3)cc(OC)c3c1OCO3)OCO2,IC50,HBZY-1 [9],> 200 µM
COC(=O)c1cc(OC)c2c(c1-c1c(/C=C(\C#N)C(=O)Nc3cc(OC)c(OC)c(OC)c3)cc(OC)c3c1OCO3)OCO2,IC50,HBZY-1 [9],> 200 µM
COc1ccccc1NC(=O)/C(C#N)=C/c1cc(OC)c(OC)c(OC)c1,IC50,HBZY-1 [9],> 200 µM
same,Activity,HBZY-1 [10],inactive
CCCCNC(=O)/C(C#N)=C/c1cc(OC)c2c(c1-c1c(C(=O)OC)cc(OC)c3c1OCO3)OCO2,IC50,HBZY-1 [9],> 200 µM
same,viability at 6 µM,HBZY-1 [11],95.3%
CCCCNC(=O)/C=C/c1cc(OC)c2c(c1-c1c(C(=O)OC)cc(OC)c3c1OCO3)OCO2,IC50,HBZY-1 [9],> 200 µM
COC(=O)c1cc(OC)c2c(c1-c1c(/C=C/C(=O)Nc3ccc(OC)cc3)cc(OC)c3c1OCO3)OCO2,IC50,HBZY-1 [9],> 200 µM
COC(=O)c1cc(OC)c2c(c1-c1c(/C=C/C(=O)NCc3ccc(OC)cc3)cc(OC)c3c1OCO3)OCO2,IC50,HBZY-1 [9],> 200 µM
COC(=O)c1cc(OC)c2c(c1-c1c(/C=C(\C#N)C(=O)Nc3ccccc3OC)cc(OC)c3c1OCO3)OCO2,IC50,HBZY-1 [9],> 200 µM
same,Activity,HBZY-1 [13],Dose-dependent effect
same,viability at 6 µM,HBZY-1 [11],99.2%
same,Activity,HBZY-1 [18],Toxic
COc1ccccc1NC(=O)/C(C#N)=C/c1ccc(OC)c(OC)c1,IC50,HBZY-1 [9],> 200 µM
same,Activity,HBZY-1 [10],inactive
